Assay results reported in the supplement of paper PMC8671470.

Tests used:
Assay in all cases: cell viability (% survival relative to DMSO control, bortezomib = 0%); higher = less cytotoxic
Settings in all cases: 72 h
[1] = tested on: KCL-22
Procedure, shortened: (§1)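 Percent survival figures are means of duplicate wells. They were obtained by CellTiter-Glo luminescence after 10 AML and 5 CML cell lines spent 72 h at 37 °C with 5% CO2 in 384-well plates with compounds at 1, 10, 100, 1000 or 10000 nM. Vehicle was set to 100% and a 10 µM positive control to 0%.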

[2] = tested on: ML-2
Procedure, shortened: as §1

[3] = tested on: MOLM-13
Procedure, shortened: as §1

[4] = tested on: SHI-1
Procedure, shortened: as §1

Structure (SMILES) | cell viability ([1]; 1 nM) [%] | cell viability ([1]; 10 nM) [%] | cell viability ([1]; 100 nM) [%] | cell viability ([1]; 1000 nM) [%] | cell viability ([1]; 10000 nM) [%] | cell viability ([2]; 1 nM) [%] | cell viability ([2]; 10 nM) [%] | cell viability ([2]; 100 nM) [%] | cell viability ([2]; 1000 nM) [%] | cell viability ([2]; 10000 nM) [%] | cell viability ([3]; 1 nM) [%] | cell viability ([3]; 10 nM) [%] | cell viability ([3]; 100 nM) [%] | cell viability ([3]; 1000 nM) [%] | cell viability ([3]; 10000 nM) [%] | cell viability ([4]; 1 nM) [%] | cell viability ([4]; 10 nM) [%] | cell viability ([4]; 100 nM) [%] | cell viability ([4]; 1000 nM) [%] | cell viability ([4]; 10000 nM) [%]
C1CCc2nnc(C34CC5CC(CC(C5)C3)C4)n2CC1 [MERCK-544] | 99.2 | 106 | 95.8 | 106 | 116 | 101 | 97.5 | 93.5 | 87.7 | 96.6 | 97.3 | 126 | 115 | 80.7 | 118 | 90.2 | 110 | 104 | 90.2 | 118
N[C@](CCCCB(O)O)(CCN1CCCCC1)C(=O)O [Arginase inhibitor 1] | 97 | 84.6 | 104 | 102 | 90.9 | 112 | 93.9 | 93.1 | 93.4 | 99.7 | 106 | 99.8 | 117 | 74.4 | 72 | 92 | 105 | 90.1 | 110 | 92.8
Clc1ccc2c(c1Cl)CNCC2 | 101 | 120 | 92.2 | 108 | 91.5 | 91.5 | 118 | 90 | 102 | 87.9 | 102 | 125 | 70.3 | 92.3 | 83.7 | 116 | 122 | 110 | 112 | 96.1
CC(C(=O)O)C(=O)O [Methylmalonate] | 91.7 | 100 | 112 | 88.3 | 93.6 | 87.4 | 96.5 | 96.6 | 92.2 | 87.9 | 107 | 86.8 | 124 | 78.3 | 89.2 | 98.9 | 83.3 | 105 | 88.7 | 97
CCOC(=O)N1c2ccc(C(F)(F)F)cc2[C@@H](N(Cc2cc(C(F)(F)F)cc(C(F)(F)F)c2)C(=O)OC)C[C@H]1CC [Torcetrapib] | 105 | 107 | 126 | 98.3 | 86.8 | 89.8 | 97 | 118 | 80.9 | 57.8 | 95.9 | 112 | 141 | 98.3 | 63.7 | 94.8 | 105 | 132 | 114 | 99.8
O=C(O)CCc1ccc(NCc2cccc(Oc3ccccc3)c2)cc1 [GW9508] | 101 | 89.5 | 89.6 | 102 | 93.4 | 84.3 | 103 | 95.8 | 112 | 103 | 98.9 | 91.7 | 92.1 | 89.6 | 104 | 102 | 99.4 | 120 | 97.8 | 107
CC(Cc1ccc(O)c(O)c1)C(C)Cc1ccc(O)c(O)c1 (stereo not given) [Masoprocol] | 99.8 | 85.9 | 120 | 108 | 66.2 | 99.2 | 103 | 96.1 | 101 | 3.98 | 98.4 | 106 | 110 | 91.2 | 65.8 | 97.1 | 96.2 | 118 | 93.3 | 70.1
Nc1ccn([C@@H]2O[C@H](CO)[C@@H](O)[C@@H]2O)c(=O)n1 [Cytarabine] | 108 | 91.6 | 26.6 | 14.2 | 9.51 | 106 | 98.5 | 32 | 0.0645 | 1.39 | 112 | 86.4 | 45.7 | 4.2 | 0.262 | 102 | 92.6 | 58 | 14.6 | 2.46
O=C(COc1ccc(C(=O)c2ccccc2)cc1)NC1CCN(Cc2ccccc2)CC1 [AdipoRon] | 102 | 110 | 102 | 108 | 76.3 | 84 | 107 | 94.5 | 97.6 | 65.9 | 94 | 106 | 93.6 | 105 | 76.5 | 92.5 | 104 | 96 | 103 | 71.7
O=C(O)C(S)=Cc1c[nH]c2ccc(F)cc12 | 111 | 94.6 | 102 | 112 | 101 | 101 | 98.6 | 113 | 111 | 91.5 | 95.9 | 103 | 99.9 | 107 | 77.3 | 103 | 97.6 | 104 | 102 | 88.5
COc1cc2c(NC3CCN(C)CC3)nc(N3CCCN(C)CC3)nc2cc1OCCCN(C)C [UNC0224] | 98.2 | 134 | 97.6 | 94.9 | 90.7 | 94 | 111 | 95 | 99.6 | 97.2 | 104 | 111 | 92.7 | 104 | 71.1 | 91.9 | 108 | 102 | 93.1 | 73.7
C[C@]12CC[C@H](O)CC1=CC[C@@H]1[C@@H]2CC[C@]2(C)C(c3cccnc3)=CC[C@@H]12 [Abiraterone] | 99.6 | 92 | 111 | 112 | 87.2 | 116 | 97.2 | 101 | 118 | 110 | 113 | 122 | 111 | 117 | 69.9 | 119 | 108 | 106 | 108 | 112
Cc1c(-c2ccccc2)oc2c(C(=O)OCCN3CCCCC3)cccc2c1=O.Cl [Flavoxate] | 94.6 | 93.2 | 102 | 95.6 | 87 | 99.1 | 99.5 | 105 | 101 | 103 | 92.9 | 107 | 95.4 | 92.6 | 81.6 | 94.8 | 99.6 | 97.6 | 98.4 | 101
Clc1ccc(COC(Cn2ccnc2)c2ccc(Cl)cc2Cl)cc1 (stereo not given) [Econazole] | 116 | 91.2 | 96.9 | 84.2 | 54.8 | 110 | 88.3 | 112 | 89.8 | 58.1 | 79.3 | 140 | 84.8 | 58.7 | 29.2 | 112 | 91 | 98.8 | 87.2 | 62.1
Sc1ncnc2nc[nH]c12 [6-mercaptopurine] | 92.6 | 89.7 | 105 | 52 | 8.81 | 111 | 91.3 | 87.9 | 56.1 | 13.5 | 117 | 87.6 | 108 | 53 | 16 | 113 | 98.6 | 102 | 66.2 | 32.6
CCOC(=O)[C@H]1O[C@@H]1C(=O)N[C@@H](CC(C)C)C(=O)NCCC(C)C [Aloxistatin] | 98.4 | 89.2 | 102 | 99.5 | 87.3 | 99 | 86.2 | 87.1 | 100 | 88.3 | 102 | 109 | 116 | 96.1 | 62.8 | 102 | 92.6 | 104 | 102 | 92.5
OCCN1CCN(CCCN2c3ccccc3Sc3ccc(Cl)cc32)CC1 [Perphenazine] | 122 | 107 | 102 | 111 | 39.6 | 99.6 | 95.4 | 96.6 | 101 | 34.4 | 114 | 68.9 | 84 | 140 | 18.5 | 100 | 110 | 97.1 | 123 | 55.2
C[C@]12O[C@H](C[C@]1(O)CO)n1c3ccccc3c3c4c(c5c6ccccc6n2c5c31)CNC4=O [Lestaurtinib] | 104 | 91 | 59.6 | 21.8 | 1.08 | 107 | 84.4 | 61.4 | 9.84 | 0.0251 | 78.5 | 14.4 | -0.694 | 1.23 | -0.369 | 107 | 97.9 | 37.1 | 19.5 | 0.00197
O=c1c2ccccc2[se]n1-c1ccccc1 [Ebselen] | 103 | 97.8 | 104 | 96.5 | 93.1 | 95.6 | 96.7 | 96.1 | 96.9 | 82 | 104 | 97.9 | 108 | 92.5 | 115 | 107 | 96.5 | 106 | 92.6 | 88.6
O=C(O)C(Cl)Cl [Dichloroacetate] | 101 | 97.7 | 93.4 | 92.1 | 102 | 91.7 | 102 | 103 | 95.8 | 103 | 95.9 | 99.5 | 97.7 | 89.4 | 102 | 99.7 | 104 | 96.8 | 101 | 103
O=P(O)(O)C(O)(Cn1ccnc1)P(=O)(O)O [Zoledronic acid] | 107 | 103 | 102 | 104 | 97.4 | 80.5 | 94.9 | 92.6 | 105 | 102 | 99.2 | 117 | 103 | 84.5 | 99.8 | 108 | 116 | 102 | 100 | 104
